SMILES strings stand for the structures.

The results in this text go back to patent US11912701B2, “Protein kinase inhibitors for promoting liver regeneration or reducing or preventing hepatocyte death” (HEPAREGENIX GMBH, priority 2018, dated 2024).

Holding throughout (type): biochemical
In experiment [1] the target is T1, BRaf (Homo sapiens, UniProt P15056).
T1 construct: purchased ProQinase GmbH, Freiburg, Germany (33PanQinase Assay Service)
Description: 33PanQinase enzyme assay, BRaf. The note with it: ratio IC50(BRaf)/IC50(MKK4). The essentials:
(§1)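 33Pi incorporation, read by microplate scintillation counting, measured kinase activity after 60 min at 30 °C. Reactions were quenched with 2% (v/v) H3PO4 and washed with 0.9% NaCl. IC50 derived by least-squares fitting; single doses reported as % residual activity.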

Experiment [2] addresses JNK1 (Homo sapiens, UniProt P45983). Description: 33PanQinase enzyme assay, JNK1. Also noted: purchased ProQinase GmbH, Freiburg, Germany (33PanQinase Assay Service). To be noted: ratio IC50(JNK1)/IC50(MKK4). The essentials: as §1
Experiment [3] has as its target T2, MKK4 (Homo sapiens, UniProt P45985).
T2 construct: purchased ProQinase GmbH, Freiburg, Germany (33PanQinase Assay Service)
T2 sequence (P45985 1-399): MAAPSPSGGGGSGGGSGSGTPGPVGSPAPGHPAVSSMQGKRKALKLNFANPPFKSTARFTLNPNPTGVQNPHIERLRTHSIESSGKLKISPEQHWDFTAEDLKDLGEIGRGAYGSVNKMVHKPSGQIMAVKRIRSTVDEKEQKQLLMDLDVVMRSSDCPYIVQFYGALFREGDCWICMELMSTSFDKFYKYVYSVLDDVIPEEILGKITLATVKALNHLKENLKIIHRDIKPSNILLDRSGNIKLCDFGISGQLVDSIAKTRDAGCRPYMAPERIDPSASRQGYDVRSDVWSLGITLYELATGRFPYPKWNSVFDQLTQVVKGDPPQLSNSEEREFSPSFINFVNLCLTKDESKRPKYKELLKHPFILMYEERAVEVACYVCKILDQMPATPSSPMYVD
Description: 33PanQinase enzyme assay, MKK4. The note with it: assay 'IC50'; for IC50: read-out: Potency MKK4 (IC50). The essentials: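 Inhibition measured as 33Pi transfer to substrate after a 60-min, 30 °C reaction, acid-stopped and scintillation-counted.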

The target in experiment [4] is T3, MKK7 (Homo sapiens, UniProt O14733).
T3 sequence (O14733 1-419): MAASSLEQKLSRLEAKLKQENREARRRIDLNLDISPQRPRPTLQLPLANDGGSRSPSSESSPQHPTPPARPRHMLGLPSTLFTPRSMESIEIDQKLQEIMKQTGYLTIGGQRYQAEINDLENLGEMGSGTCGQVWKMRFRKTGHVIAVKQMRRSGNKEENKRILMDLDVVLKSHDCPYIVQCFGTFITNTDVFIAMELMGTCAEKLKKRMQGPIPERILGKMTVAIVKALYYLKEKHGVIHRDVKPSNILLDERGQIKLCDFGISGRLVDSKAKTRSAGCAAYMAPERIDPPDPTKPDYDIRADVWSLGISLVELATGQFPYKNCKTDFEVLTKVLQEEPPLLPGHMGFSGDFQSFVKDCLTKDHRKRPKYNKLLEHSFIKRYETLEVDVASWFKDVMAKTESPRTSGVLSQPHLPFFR
Put plainly: 33PanQinase enzyme assay, MKK7. The note with it: ratio IC50(MKK7)/IC50(MKK4). Also noted: purchased ProQinase GmbH, Freiburg, Germany (33PanQinase Assay Service). The essentials:
as §1

T1 sequence (P15056 whole entry, species assumed): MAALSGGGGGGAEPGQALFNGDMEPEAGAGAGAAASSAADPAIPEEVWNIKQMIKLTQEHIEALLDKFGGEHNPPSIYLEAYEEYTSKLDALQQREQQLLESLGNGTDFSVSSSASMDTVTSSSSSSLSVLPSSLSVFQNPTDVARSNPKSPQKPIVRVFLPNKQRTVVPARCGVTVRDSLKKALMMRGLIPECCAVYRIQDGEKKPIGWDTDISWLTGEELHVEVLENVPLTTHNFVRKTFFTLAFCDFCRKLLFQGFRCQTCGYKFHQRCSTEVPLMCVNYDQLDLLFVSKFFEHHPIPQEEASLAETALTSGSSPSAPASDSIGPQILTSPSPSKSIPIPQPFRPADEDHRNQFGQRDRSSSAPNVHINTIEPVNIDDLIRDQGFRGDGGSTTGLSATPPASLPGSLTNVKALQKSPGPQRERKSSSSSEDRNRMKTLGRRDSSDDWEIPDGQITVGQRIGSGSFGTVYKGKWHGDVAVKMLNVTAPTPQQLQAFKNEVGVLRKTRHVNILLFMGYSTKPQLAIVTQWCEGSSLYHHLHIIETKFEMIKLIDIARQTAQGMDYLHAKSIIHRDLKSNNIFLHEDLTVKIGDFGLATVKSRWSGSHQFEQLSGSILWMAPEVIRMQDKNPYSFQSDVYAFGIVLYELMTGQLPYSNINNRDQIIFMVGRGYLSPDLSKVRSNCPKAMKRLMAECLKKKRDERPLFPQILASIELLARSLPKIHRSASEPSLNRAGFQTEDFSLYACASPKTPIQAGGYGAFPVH
JNK1, sequence (P45983 whole entry): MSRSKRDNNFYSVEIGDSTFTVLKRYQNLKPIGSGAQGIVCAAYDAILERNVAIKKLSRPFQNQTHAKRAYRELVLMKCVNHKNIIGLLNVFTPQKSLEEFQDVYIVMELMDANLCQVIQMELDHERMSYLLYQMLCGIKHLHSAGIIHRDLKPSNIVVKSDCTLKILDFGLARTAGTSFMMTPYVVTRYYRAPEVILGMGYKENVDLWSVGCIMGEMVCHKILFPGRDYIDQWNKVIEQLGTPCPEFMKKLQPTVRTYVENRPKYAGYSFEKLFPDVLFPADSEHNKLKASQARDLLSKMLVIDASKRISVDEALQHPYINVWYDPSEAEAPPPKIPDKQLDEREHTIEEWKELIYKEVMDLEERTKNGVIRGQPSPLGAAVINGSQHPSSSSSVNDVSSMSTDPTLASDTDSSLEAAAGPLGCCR

`CCCS(=O)(=O)Nc1ccc(F)c(C(=O)c2c[nH]c3ncc(N4CC(C)OC(C)C4)cc23)c1F` (stereo not shown) [Example 138, N-(3-(5-(2,6-dimethyl-morpholino)-1H-pyrrolo[2,3-b]pyridine-3-carbonyl)-2,4-difluorophenyl)propane-1-sulfonamide]: the “Selectivity Braf, IC50(off-target)/IC50(MKK4)” value (shortened to “Selectivity Braf”) in experiment [1] was “◯ (3 ≥ IC50(off-target)/IC50(MKK4))”. In experiment [2], the “Selectivity JNK1, IC50(off-target)/IC50(MKK4)” value (“Selectivity JNK1” below) is given as “◯ (3 ≥ IC50(off-target)/IC50(MKK4))”. Moreover, in experiment [3], the IC50 is 1000 to 10000 nM. In experiment [4], the “Selectivity IVIKK7, IC50(off-target)/IC50(MKK4)” value (from here on “Selectivity IVIKK7”) is reported as “++ (100 ≥ IC50(off-target)/IC50(MKK4) > 10)”.

Turning to `CCCS(=O)(=O)Nc1ccc(F)c(C(=O)c2c[nH]c3ncc(N4CCCCC4)cc23)c1F` [Example 140], the “Selectivity Braf” value in experiment [1] is given as “◯ (3 ≥ IC50(off-target)/IC50(MKK4))”. For the same compound, the “Selectivity JNK1” value in experiment [2] is “◯ (3 ≥ IC50(off-target)/IC50(MKK4))”. Moreover, in experiment [3], the IC50 fell in the range of 1000 to 10000 nM. Also, the “Selectivity IVIKK7” value in experiment [4] was “++ (100 ≥ IC50(off-target)/IC50(MKK4) > 10)”.

In the case of `O=C(c1ccc(F)c(NS(=O)(=O)CCC(F)(F)F)c1F)c1c[nH]c2ncc(-c3cnc(C(F)(F)F)nc3)cc12` [Example 142, N-(2,6-difluoro-3-(5-(2-(trifluoromethyl)pyrimidin-5-yl)-1H-pyrrolo[2,3-b]pyridine-3-carbonyl)phenyl)-3,3,3-trifluoro-propane-1-sulfonamide], the “Selectivity Braf” value in experiment [1] is given as “+++ (IC50(off-target)/IC50(MKK4) > 100)”. Besides, in experiment [2], the “Selectivity JNK1” value was “++·+”. Further, the IC50 in experiment [3] is < 100 nM. In addition, the “Selectivity IVIKK7” value in experiment [4] is on record as “+++ (IC50(off-target)/IC50(MKK4) > 100)”.

In the case of `CCCS(=O)(=O)Nc1c(F)ccc(C(=O)c2c[nH]c3ncc(-c4cccc(C#N)c4)cc23)c1F` [Example 143, N-(3-(5-(3-cyanophenyl)-1-pyrrolo[2,3-b]pyridine-3-carbonyl)-2,6-difluorophenyl)propane-1-sulfonamide], in experiment [1], the “Selectivity Braf” value was “+++ (IC50(off-target)/IC50(MKK4) > 100)”. Moreover, the “Selectivity JNK1” value in experiment [2] is on record as “++ (100 ≥ IC50(off-target)/IC50(MKK4) > 10)”. Moreover, the half-maximal inhibitory concentration (IC50) in experiment [3] is < 100 nM. In addition, in experiment [4], the “Selectivity IVIKK7” value is “+++ (IC50(off-target)/IC50(MKK4) > 100)”.

In the case of `CCCS(=O)(=O)Nc1c(F)ccc(C(=O)c2c[nH]c3ncc(-c4ccnnc4)cc23)c1F` [Example 144, N-(2,6-difluoro-3-(5-(pyridazin-4-yl)-1H-pyrrolo[2,3-b]pyridine-3-carbonyl)phenyl)propane-1-sulfonamide], the “Selectivity Braf” value in experiment [1] is recorded as “++ (100 ≥ IC50(off-target)/IC50(MKK4) > 10)”. In experiment [2], the “Selectivity JNK1” value is on record as “+++ (IC50(off-target)/IC50(MKK4) > 100)”. The IC50 in experiment [3] is < 100 nM. The “Selectivity IVIKK7” value in experiment [4] is reported as “+++ (IC50(off-target)/IC50(MKK4) > 100)”.

In the case of `Cc1ncc(-c2cnc3[nH]cc(C(=O)c4ccc(F)c(NS(=O)(=O)CCC(F)(F)F)c4F)c3c2)cn1` [Example 147, N-(2,6-difluoro-3-(5-(2-methylpyrimidin-5-yl)-1H-pyrrolo[2,3-b]pyridine-3-carbonyl)phenyl)-3,3,3-trifluoropropane-1-sulfonamide], in experiment [1], the “Selectivity Braf” value is “++ (100 ≥ IC50(off-target)/IC50(MKK4) > 10)”. In experiment [2], the “Selectivity JNK1” value is listed as “+++ (IC50(off-target)/IC50(MKK4) > 100)”. The IC50 in experiment [3] is < 100 nM. Moreover, in experiment [4], the “Selectivity IVIKK7” value is listed as “+++ (IC50(off-target)/IC50(MKK4) > 100)”.

In the case of `CS(=O)(=O)Nc1c(F)ccc(C(=O)c2c[nH]c3ncc(-c4ccc(Cl)cc4)cc23)c1F` [Example 149, N-(3-(5-(4-chlorophenyl)-1H-pyrrolo[2,3-b]pyridine-3-carbonyl)-2,6-difluorophenyl)methanesulfonamide], the “Selectivity Braf” value in experiment [1] was “++ (100 ≥ IC50(off-target)/IC50(MKK4) > 10)”. In experiment [2], the “Selectivity JNK1” value is “++ (100 ≥ IC50(off-target)/IC50(MKK4) > 10)”. Moreover, the IC50 in experiment [3] lay in the range of 100 to 1000 nM. In addition, the “Selectivity IVIKK7” value in experiment [4] is listed as “+++ (IC50(off-target)/IC50(MKK4) > 100)”.

`O=C(c1ccc(F)c(NS(=O)(=O)CCC(F)(F)F)c1F)c1c[nH]c2ncc(-c3ccc(Cl)cc3)cc12` [Example 150, N-(3-(5-(4-chlorophenyl)-1H-pyrrolo[2,3-b]pyridine-3-carbonyl)-2,6-difluorophenyl)-3,3,3-trifluoropropane-1-sulfonamide]: in experiment [1], the “Selectivity Braf” value was “+++ (IC50(off-target)/IC50(MKK4) > 100)”. Moreover, the “Selectivity JNK1” value in experiment [2] is “+++ (IC50(off-target)/IC50(MKK4) > 100)”. In addition, in experiment [3], the IC50 is < 100 nM. Moreover, in experiment [4], the “Selectivity IVIKK7” value is recorded as “+++ (IC50(off-target)/IC50(MKK4) > 100)”.

For `CCCS(=O)(=O)Nc1c(F)ccc(C(=O)c2c[nH]c3ncc(-c4ccc(S(C)(=N)=O)cc4)cc23)c1F` (stereo not shown) [Example 151, N-(2,6-difluoro-3-(5-(4-(S-methylsulfonimidoyl)phenyl)-1H-pyrrolo[2,3-b]pyridine-3-carbonyl)phenyl)propane-1-sulfonamide], in experiment [1], the “Selectivity Braf” value was “++ (100 ≥ IC50(off-target)/IC50(MKK4) > 10)”. For the same compound, in experiment [2], the “Selectivity JNK1” value is listed as “++ (100 ≥ IC50(off-target)/IC50(MKK4) > 10)”. The IC50 in experiment [3] fell in the range of 100 to 1000 nM. Moreover, the “Selectivity IVIKK7” value in experiment [4] was “+++ (IC50(off-target)/IC50(MKK4) > 100)”.

In the case of `CCCS(=O)(=O)Nc1c(F)ccc(C(=O)c2c[nH]c3ncc(-c4ccc(O)cc4Cl)cc23)c1F` [Example 152, N-(3-(5-(2-chloro-4-hydroxyphenyl)-1H-pyrrolo[2,3-b]pyridine-3-carbonyl)-2,6-difluorophenyl)propane-1-sulfonamide], the “Selectivity Braf” value in experiment [1] is “+++ (IC50(off-target)/IC50(MKK4) > 100)”. Further, the “Selectivity JNK1” value in experiment [2] is given as “++ (100 ≥ IC50(off-target)/IC50(MKK4) > 10)”. The IC50 in experiment [3] was < 100 nM. Also, the “Selectivity IVIKK7” value in experiment [4] is “+++ (IC50(off-target)/IC50(MKK4) > 100)”.

Turning to `CCCS(=O)(=O)Nc1c(F)ccc(C(=O)c2c[nH]c3ncc(-c4ccc(OCC(O)CO)cc4Cl)cc23)c1F` (stereo not shown) [Example 153, N-(3-(5-(2-chloro-4-(2,3-dihydroxypropoxy)phenyl)-1H-pyrrolo[2,3-b]pyridine-3-carbonyl)-2,6-difluorophenyl)propane-1-sulfonamide], the “Selectivity Braf” value in experiment [1] is reported as “+++ (IC50(off-target)/IC50(MKK4) > 100)”. For the same compound, the “Selectivity JNK1” value in experiment [2] is given as “++ (100 ≥ IC50(off-target)/IC50(MKK4) > 10)”. For the same compound, the IC50 in experiment [3] was < 100 nM. Further, the “Selectivity IVIKK7” value in experiment [4] was “+++ (IC50(off-target)/IC50(MKK4) > 100)”.

On to `CCCS(=O)(=O)Nc1c(F)ccc(C(=O)c2c[nH]c3ncc(-c4ccc(OCC(O)CO)cc4)cc23)c1F` (stereo not shown) [Example 154, N-(3-(5-(4-(2,3-dihydroxypropoxy)phenyl)-1H-pyrrolo[2,3-b]pyridine-3-carbonyl)-2,6-difluorophenyl)propane-1-sulfonamide], for which the “Selectivity Braf” value in experiment [1] is recorded as “++ (100 ≥ IC50(off-target)/IC50(MKK4) > 10)”. Besides, the “Selectivity JNK1” value in experiment [2] is “++ (100 ≥ IC50(off-target)/IC50(MKK4) > 10)”. Also, the IC50 in experiment [3] was < 100 nM. In experiment [4], the “Selectivity IVIKK7” value is given as “+++ (IC50(off-target)/IC50(MKK4) > 100)”.

On to `CCCS(=O)(=O)Nc1c(F)ccc(C(=O)c2c[nH]c3ncc(-c4ccc(S(F)(F)(F)(F)F)cc4)cc23)c1F` [Example 155, N-(2,6-difluoro-3-(5-(4-(pentafluoro-l6-sulfaneyl)phenyl)-1H-pyrrolo[2,3-b]pyridine-3-carbonyl)phenyl)propane-1-sulfonamide], for which the “Selectivity Braf” value in experiment [1] is recorded as “+++ (IC50(off-target)/IC50(MKK4) > 100)”. Further, in experiment [2], the “Selectivity JNK1” value is given as “++ (100 ≥ IC50(off-target)/IC50(MKK4) > 10)”. Also, the “Potency MKK4 (IC50)” value in experiment [3] is given as “++·+”. Also, in experiment [4], the “Selectivity IVIKK7” value is reported as “+++ (IC50(off-target)/IC50(MKK4) > 100)”.

Broadly, the IC50 is the midpoint of a concentration-inhibition curve.
